Reference: the supplement of paper PMC10307832

Columns and labels:
Assay in all cases: relative viability (nuclei count vs DMSO), 5 days (fraction); higher = more cells survive
AZ628 + OSI-027 = compound: CC1=C(C=C(C=C1)NC(=O)C2=CC(=CC=C2)C(C)(C)C#N)NC3=CC4=C(C=C3)N=CN(C4=O)C [AZ628] + COc1cccc2cc(-c3nc([C@H]4CC[C@H](C(=O)O)CC4)n4ncnc(N)c34)[nH]c12 [OSI-027] (partner 0.5 µM)
Summary of the method: (§1)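 The day after seeding in 1536-well plates, lung cancer cell lines were treated by pin tool with a single drug, or with a fixed anchor-drug dose together with five library-drug doses (not always all listed) in √10 steps. After 5 days, a combined fix-and-stain solution (final 0.05% Triton X-100, 1% formaldehyde, 1 ug/ml Hoechst) was added. Nuclei counted on 4× images gave relative viability as treated counts over vehicle counts, reported as the median of duplicate plates.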

QS11 + OSI-027 = compound: C1CC2=C(C1)C=C(C=C2)OC3=NC(=C4C(=N3)N(C=N4)CC5=CC=C(C=C5)C6=CC=CC=C6)N[C@@H](CC7=CC=CC=C7)CO [QS11] + COc1cccc2cc(-c3nc([C@H]4CC[C@H](C(=O)O)CC4)n4ncnc(N)c34)[nH]c12 [OSI-027] (partner 0.5 µM)
Summary of the method: as §1

QS11 + Vorinostat = compound: C1CC2=C(C1)C=C(C=C2)OC3=NC(=C4C(=N3)N(C=N4)CC5=CC=C(C=C5)C6=CC=CC=C6)N[C@@H](CC7=CC=CC=C7)CO [QS11] + O=C(CCCCCCC(=O)Nc1ccccc1)NO [Vorinostat] (partner 1 µM)
Summary of the method: as §1

Darinaparsin + Alpelisib = compound: C[As](C)SC[C@H](NC(=O)CC[C@H](N)C(=O)O)C(=O)NCC(=O)O [Darinaparsin] + Cc1nc(NC(=O)N2CCC[C@H]2C(N)=O)sc1-c1ccnc(C(C)(C)C(F)(F)F)c1 [Alpelisib] (partner 2 µM)
Summary of the method: as §1

Row | Cell Line | relative viability (AZ628 + OSI-027; first compound 0.08 µM) | relative viability (AZ628 + OSI-027; first compound 0.253 µM) | relative viability (AZ628 + OSI-027; first compound 0.8 µM) | relative viability (AZ628 + OSI-027; first compound 2.53 µM) | relative viability (AZ628 + OSI-027; first compound 8 µM) | relative viability (QS11 + OSI-027; first compound 0.08 µM) | relative viability (QS11 + OSI-027; first compound 0.253 µM) | relative viability (QS11 + OSI-027; first compound 2.53 µM) | relative viability (QS11 + OSI-027; first compound 8 µM) | relative viability (QS11 + Vorinostat; first compound 0.08 µM) | relative viability (QS11 + Vorinostat; first compound 0.253 µM) | relative viability (QS11 + Vorinostat; first compound 2.53 µM) | relative viability (QS11 + Vorinostat; first compound 8 µM) | relative viability (Darinaparsin + Alpelisib; first compound 0.08 µM) | relative viability (Darinaparsin + Alpelisib; first compound 0.8 µM) | relative viability (Darinaparsin + Alpelisib; first compound 2.53 µM) | relative viability (Darinaparsin + Alpelisib; first compound 8 µM) | relative viability (QS11 + OSI-027; first compound 0.8 µM) | relative viability (QS11 + Vorinostat; first compound 0.8 µM)
1 | NCI-H3122 | 0.559 | 0.344 | 0.287 | 0.267 | 0.16 | 1.03 | 1.41 | 0.994 | 0.757 | 1 | 1.21 | 1.03 | 0.584 | 0.9 | 0.796 | 0.735 | 1.01 | – | –
2 | NCI-H596 | 0.715 | 0.67 | 0.818 | 0.721 | 0.528 | 0.715 | 0.688 | 0.66 | 0.732 | 0.52 | 0.51 | 0.623 | 0.593 | 0.511 | 0.621 | 0.421 | 0.602 | 0.679 | 0.501
3 | NCI-H661 | 0.631 | 0.617 | 0.513 | 0.593 | 0.47 | 0.696 | 0.75 | 0.618 | 0.549 | 0.786 | 0.805 | 0.804 | 0.672 | 0.632 | 0.692 | 0.683 | 0.668 | 0.69 | 0.632
4 | NCI-H727 | 0.626 | 0.402 | 0.328 | 0.397 | 0.338 | 0.576 | 0.708 | 0.404 | 0.461 | 1.28 | 1.16 | 1.07 | 1.37 | 0.718 | 0.587 | 0.549 | 0.683 | 0.579 | 1.29
